pEC50: −log10 of the molar value. Read-outs that look alike come from different tables or passages of the source. Values belong to the molecule of their own block, whether it stands above or below them.
Experiments:
Format in all cases: cell-based
[1] = tested on: Human Colon Cancer cells Colo205; assay: Cell proliferation experiment (Alarm blue), Colo205
Procedure: (§1) The cells were cultured in conventional ways, and the cells should be passed for at least 2 generations before plating. Cells at the logarithmic growth phase were collected, prepared into single cell suspensions and counted. The concentration of cells was adjusted to desired concentration, and cells were inoculated into a 96-well cell culture plate at 100 μl per well. 100 μL of complete medium of the test compound were added to each well, 2 replicate wells for each concentration were set up, and diluted with a 5-fold gradient, and continued to culture for 72 h. All cells were subjected to EC50 test for corresponding samples.
(§2) The fluorescence intensity of each well was detected using the Alarm blue method, and IC50 was calculated.
(§3) IC50 was calculated according to the following formula:
(§4) [formula] • wherein Min, Max and Slope represent the minimum, maximum and slope respectively.

Human Colon Cancer HT-29 = assay: Cell proliferation experiment (Alarm blue), HT-29
Procedure: as §1, §2, §3, §4

[2] = tested on: Human Small Cell Lung Cancer H69; assay: Cell proliferation experiment (Alarm blue), H69
Procedure: as §1, §2, §3, §4

[3] = tested on: human gastric carcinoma cells N87; assay: Cell proliferation experiment (Alarm blue), N87
Procedure: as §1, §2, §3, §4

[4] = tested on: Human Small Cell Lung Cancer NCI-H82; assay: Cell proliferation experiment (Alarm blue), H82
Procedure: as §1, §2, §3, §4

[5] = Homo sapiens, COLO 205, 72 h, Colo205 cells, 72 h culture, read-out: Anti cell proliferative activity EC50, Colo205
[6] = Homo sapiens, HT-29 cells, 72 h culture, read-out: Anti cell proliferative activity EC50, HT-29
[7] = Homo sapiens, NCI-H69, H69 cells, 72 h culture, read-out: Anti cell proliferative activity EC50, H69
[8] = Homo sapiens, 72 h, N87 cells, 72 h culture, read-out: Anti cell proliferative activity EC50, N87
[9] = Homo sapiens, NCI-H82, 72 h, H82 cells, 72 h culture, read-out: Anti cell proliferative activity EC50, H82
[10] = Colo205 cells, 72 h culture, read-out: Anti cell proliferative activity EC50, Colo205
[11] = HT-29 cells, 72 h culture, read-out: Anti cell proliferative activity EC50, HT-29
[12] = H69 cells, 72 h culture, read-out: Anti cell proliferative activity EC50, H69
[13] = N87 cells, 72 h culture, read-out: Anti cell proliferative activity EC50, N87
[14] = H82 cells, 72 h culture, read-out: Anti cell proliferative activity EC50, H82

SMILES: CC(C)c1cc(-c2nnc(O)n2-c2ccc3c(ccn3CCC3CCN(C(=O)CCSC4CC(=O)N(CCCCCC(=O)N[C@@H](C)C(=O)N[C@@H](C)C(=O)N[C@@H](CC(N)=O)C(=O)Nc5ccc(COC(=O)N(CCC#Cc6ccc7c(c6)CN(C6CCC(=O)NC6=O)C7=O)C6CCC(NC(=O)N7CCN(c8ccc(Nc9ncc(Cl)c(Nc%10ccccc%10C(N)=O)n9)cc8)CC7)CC6)cc5)C4=O)CC3)c2)c(O)cc1O.O=CO (some centres unmarked) [UB-181290]
- Anti cell proliferative activity EC50, Colo205 ([1]; Colo205 cells, 72 h culture): insoluble
- Anti cell proliferative activity EC50, HT-29 (Human Colon Cancer HT-29; HT-29 cells, 72 h culture): insoluble
- Anti cell proliferative activity EC50, H69 ([2]; H69 cells, 72 h culture): insoluble
- Anti cell proliferative activity EC50, N87 ([3]; N87 cells, 72 h culture): insoluble
- Anti cell proliferative activity EC50, H82 ([4]; H82 cells, 72 h culture): insoluble

- pEC50 [1, 5]: 7.42
- pEC50 (Human Colon Cancer HT-29; [6]): 6.40
- pEC50 [2, 7]: 7.50
- pEC50 [3, 8]: 7.61
- pEC50 [4, 9]: 7.62
SMILES: NC(=O)c1ccccc1Nc1nc(Nc2ccc(N3CCN(C(=O)N[C@H]4C[C@@H](NCC#Cc5ccc6c(c5)CN(C5CCC(=O)NC5=O)C6=O)C4)CC3)cc2)ncc1Cl (some centres unmarked) [UB-181258]

- pEC50 ([1]; 72 h): 8.39
- pEC50 (Human Colon Cancer HT-29; 72 h): < 6.00
- pEC50 ([2]; 72 h): < 6.00
- pEC50 ([3]; 72 h): 6.56
- pEC50 ([4]; 72 h): 8.06
SMILES: CNC(=O)c1ccccc1Nc1nc(Nc2ccc(N3CCN(C(=O)NC4CCC(N(CCC#Cc5ccc6c(c5)CN(C5CCC(=O)NC5=O)C6=O)C(=O)OCc5ccc(NC(=O)[C@H](CC(N)=O)NC(=O)[C@H](C)NC(=O)[C@H](C)NC(=O)CCCCCN6C(=O)CC(SC[C@H](NC(=O)[C@H](CC(=O)O)NC(=O)[C@H](CC(=O)O)NC(=O)[C@H](CCCNC(=N)N)NC(=O)[C@H](CC(=O)O)NC(=O)CCC(NC(=O)c7ccc(NCc8cnc9nc(N)[nH]c(=O)c9n8)cc7)C(=O)O)C(=O)O)C6=O)cc5)CC4)CC3)cc2)ncc1Cl (some centres unmarked) [UB-181298]

- pEC50 [1, 5]: 7.19
- pEC50 (Human Colon Cancer HT-29; [6]): 6.38
- pEC50 [2, 7]: < 6.00
- pEC50 [3, 8]: < 6.00
- pEC50 [4, 9]: 7.60
SMILES: NC(=O)c1ccccc1Nc1nc(Nc2ccc(C3CCN(C(=O)N[C@H]4C[C@@H](NCCC#Cc5ccc6c(c5)CN(C5CCC(=O)NC5=O)C6=O)C4)CC3)cc2)ncc1Cl (some centres unmarked) [UB-181279]

SMILES: N=C(N)NCCC[C@H](NC(=O)[C@H](CC(=O)O)NC(=O)CC[C@H](NC(=O)c1ccc(NCc2cnc3nc(N)[nH]c(=O)c3n2)cc1)C(=O)O)C(=O)N[C@@H](CC(=O)O)C(=O)N[C@@H](CC(=O)O)C(=O)N[C@@H](CSSCCOC(=O)N(CCC#Cc1ccc2c(c1)CN(C1CCC(=O)NC1=O)C2=O)C1CCC(NC(=O)N2CCN(c3ccc(Nc4ncc(Cl)c(Nc5ccccc5C(N)=O)n4)cc3)CC2)CC1)C(=O)O (some centres unmarked) [UB-181327]
- pEC50 [1, 10]: 6.61
- pEC50 (Human Colon Cancer HT-29; [11]): 6.07
- pEC50 [2, 12]: < 6.00
- pEC50 [3, 13]: < 6.00
- pEC50 [4, 14]: 6.55

SMILES: CC[C@@H]1C(=O)N(C)c2cnc(Nc3ccc(-c4cn([C@H]5CC[C@@H](N(CCOCCC#Cc6cccc7c6CN(C6CCC(=O)NC6=O)C7=O)C(=O)OCc6ccc(NC(=O)[C@H](CC(N)=O)NC(=O)[C@H](C)NC(=O)[C@H](C)NC(=O)CCCCCN7C(=O)CC(SC[C@H](N)C(=O)N[C@@H](Cc8ccccc8)C(=O)N[C@H]8CSSC[C@@H](C(=O)N[C@H](CO)[C@@H](C)O)NC(=O)[C@H]([C@@H](C)O)NC(=O)[C@H](CCCCN)NC(=O)[C@@H](Cc9c[nH]c%10ccccc9%10)NC(=O)[C@H](Cc9ccccc9)NC8=O)C7=O)cc6)CC5)nn4)cc3OC)nc2N1C1CCCC1 (some centres unmarked) [UB-181334]
- pEC50 ([1]; 72 h): 6.54
- pEC50 (Human Colon Cancer HT-29; 72 h): < 6.00
- pEC50 ([2]; 72 h): 6.02
- pEC50 ([3]; 72 h): 6.03
- pEC50 ([4]; 72 h): 6.00

SMILES: CC(C)c1cc(-c2nnc(O)n2-c2ccc3c(ccn3CCC3CCN(C(=O)NCCOCCOCCOCCOCCOCCOCCOCCOCCC(=O)N[C@@H](CSSCCOC(=O)N(CCC#Cc4ccc5c(c4)CN(C4CCC(=O)NC4=O)C5=O)C4CCC(NC(=O)N5CCN(c6ccc(Nc7ncc(Cl)c(Nc8ccccc8C(N)=O)n7)cc6)CC5)CC4)C(=O)N[C@H](Cc4ccccc4)C(=O)N[C@H]4CSSC[C@@H](C(=O)N[C@H](CO)[C@@H](C)O)NC(=O)[C@H]([C@@H](C)O)NC(=O)[C@H](CCCCN)NC(=O)[C@@H](Cc5c[nH]c6ccccc56)NC(=O)[C@H](Cc5ccccc5)NC4=O)CC3)c2)c(O)cc1O (some centres unmarked) [UB-181297]
- pEC50 [1, 10]: < 6.00
- pEC50 (Human Colon Cancer HT-29; [11]): < 6.00
- pEC50 [2, 12]: < 6.00
- pEC50 [3, 13]: < 6.00
- pEC50 [4, 14]: < 6.00
